Experimental findings from the supplement of paper PMC10307832 are described below.

Common to all, as to experiment: relative viability (nuclei count vs DMSO), 5 days (fraction); higher = more cells survive
Compound in test [1]: CC1CC(=O)N(C2=CN=C(N=C2N1C3CCCC3)NC4=C(C=C(C=C4)C(=O)NC5CCN(CC5)C)OC)C [NPK76-II-72-1]
Put shortly: (§1)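 On vehicle-anchored 1536-well plates, lung cancer cell lines held overnight at 37 °C were pinned with five library-drug doses (not always all listed) spaced by √10. With no medium change over 5 days, they were then fixed, permeabilised and Hoechst-stained in one step and imaged at 4×. MetaXpress counted nuclei, and viability is the median across plates of treated-well over vehicle-well nuclei. Acceptance needed control CV below 25% and at least one doubling.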

Compound in test [2]: CC[C@@H]1C(=O)N(C)c2cnc(Nc3ccc(C(=O)NC4CCN(C)CC4)cc3OC)nc2N1C1CCCC1 [BI-2536]
The gist of the method:
as §1

Compound in test [3]: CC1CC(=O)N(C2=CN=C(N=C2N1C3CCCC3)NC4=C(C=C(C=C4)C(=O)NC5CCN(CC5)C)OC)C [NPK76-II-72-1] + Cc1nc(NC(=O)N2CCC[C@H]2C(N)=O)sc1-c1ccnc(C(C)(C)C(F)(F)F)c1 [Alpelisib] (partner 2 µM)
Put shortly: (§2)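 Each reported value is a median over duplicate plates. It expresses relative viability: treated-well nuclei count divided by vehicle-well nuclei count. Lung cancer cell lines in 1536-well plates were dosed by pin tool a day after seeding, alone with one drug or with a fixed anchor-drug dose plus five library-drug doses (not always all listed) in √10 steps, and nuclei were counted after 5 days.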

Compound in test [4]: CC[C@@H]1C(=O)N(C)c2cnc(Nc3ccc(C(=O)NC4CCN(C)CC4)cc3OC)nc2N1C1CCCC1 [BI-2536] + Nc1nc2[nH]cc(CCc3ccc(C(=O)N[C@@H](CCC(=O)O)C(=O)O)cc3)c2c(=O)[nH]1 [Pemetrexed] (partner 0.2 µM)
Put shortly:
as §2

With NCI-H647, the relative viability in test [1] (0.01 µM) stood at 0.886; in test [1] (0.03162 µM), 0.971; in test [1] (0.1 µM), 1.01; in test [1] (0.3162 µM), 1.03; in test [1] (1 µM), 1.06; in test [2] (0.01 µM), 0.925. Besides, the relative viability in test [2] (0.03162 µM) was found to be 0.874; in test [2] (0.1 µM), 0.161; in test [2] (0.3162 µM), 0.0642; in test [2] (1 µM), 0.0923; in test [3] (first compound 0.01 µM), 0.985; in test [3] (first compound 0.03162 µM), 1.28. In addition, the relative viability in test [3] (first compound 0.3162 µM) amounted to 1.02; in test [3] (first compound 1 µM), 1.18; in test [4] (first compound 0.01 µM), 0.179; in test [4] (first compound 0.03162 µM), 0.148; in test [4] (first compound 0.1 µM) it was 0.113; in test [4] (first compound 0.3162 µM), 0.0907. In addition, the relative viability in test [4] (first compound 1 µM) amounted to 0.0929.

Consider HCC-78, for which the relative viability in test [1] (0.01 µM) was found to be 0.881; in test [1] (0.03162 µM) it was 0.903; in test [1] (0.1 µM), 0.931; in test [1] (0.3162 µM), 0.976; in test [1] (1 µM), 1; in test [2] (0.01 µM) it was 0.972. Further, the relative viability was determined as 1.04 in test [2] (0.03162 µM); 0.831 in test [2] (0.1 µM); 0.579 in test [2] (0.3162 µM); 0.247 in test [2] (1 µM); 0.402 in test [3] (first compound 0.03162 µM); 0.334 in test [3] (first compound 0.1 µM). Also, the relative viability was 0.337 in test [3] (first compound 1 µM); 0.981 in test [4] (first compound 0.01 µM); 0.874 in test [4] (first compound 0.03162 µM); 0.932 in test [4] (first compound 0.1 µM); 0.895 in test [4] (first compound 0.3162 µM); 0.847 in test [4] (first compound 1 µM).

Consider NCI-H1755, for which the relative viability in test [1] (0.01 µM) came to 0.97; in test [1] (0.03162 µM) it was 0.998; in test [1] (0.1 µM), 1; in test [1] (0.3162 µM), 0.979; in test [1] (1 µM), 1.02; in test [2] (0.01 µM), 0.994. Also, the relative viability in test [2] (0.03162 µM) was determined as 0.974; in test [2] (0.1 µM), 0.695; in test [2] (0.3162 µM) it was 0.332; in test [2] (1 µM), 0.291; in test [3] (first compound 0.01 µM), 0.883; in test [3] (first compound 0.03162 µM) it was 0.983. In addition, the relative viability amounted to 0.91 in test [3] (first compound 0.1 µM); 0.896 in test [3] (first compound 0.3162 µM); 0.938 in test [3] (first compound 1 µM); 0.456 in test [4] (first compound 0.01 µM); 0.371 in test [4] (first compound 0.03162 µM); 0.295 in test [4] (first compound 0.1 µM). Further, the relative viability in test [4] (first compound 0.3162 µM) was 0.359; in test [4] (first compound 1 µM), 0.291.

For NCI-H3122, the relative viability in test [1] (0.01 µM) turned out to be 0.97; in test [1] (0.03162 µM) it was 1.01; in test [1] (0.1 µM), 0.988; in test [1] (0.3162 µM), 1; in test [1] (1 µM) it was 1; in test [2] (0.01 µM), 0.992. Further, the relative viability came out at 0.942 in test [2] (0.03162 µM); 0.243 in test [2] (0.1 µM); 0.173 in test [2] (0.3162 µM); 0.145 in test [2] (1 µM); 0.709 in test [3] (first compound 0.01 µM); 0.724 in test [3] (first compound 0.03162 µM). Further, the relative viability in test [3] (first compound 0.1 µM) amounted to 0.789; in test [3] (first compound 0.3162 µM), 0.838; in test [3] (first compound 1 µM) it was 0.776; in test [4] (first compound 0.01 µM), 0.212; in test [4] (first compound 0.03162 µM), 0.171; in test [4] (first compound 0.1 µM), 0.159. Also, the results for the relative viability in test [4] (first compound 0.3162 µM) and in test [4] (first compound 1 µM) were 0.129 and 0.121, respectively.
